As usually defined, the solubility is the dissolved amount per volume that the medium holds. As a reminder, the Cmax is the peak of the concentration-time curve.

Entries after “also recorded” stand apart in the source; their conditions may differ.

Series [1] can be described thus: Mouse liver microsome stability. In kind it is in vitro ADME. The conditions noted are these: mouse liver microsomes; read-out: mouse liver microsome stability T1/2.
Series [2] concerns astrocytes. As to the kind of experiment: Mitochondrial ROS measurement (MitoSOX) in astrocytes. The series is classed as cell-based, mouse. The conditions noted are these: induced by stimulation with TNFα and IL-1β. On the procedure:
Mitochondrial ROS measurement. 50,000 astrocytes were seeded per well in 96-well black plates and rested for 2 days in complete medium, followed by activation or inhibitor pretreatment for 24 h. MitoSOX red (Thermo Fisher Scientific, #M36008) was used to stain for mitochondrial ROS for 10 min following the manual and the signal was detected on Infinite M1000 PRO Microplate Reader (Tecan). The fluorescent signal was normalized to cell number estimated using CyQUANT cell proliferation assay kit (Invitrogen, #C7026) first and then compared to control group for data analysis.

For a further series, the system named is microglia. Kind of series: Neonatal murine microglia stimulated with LPS: qPCR. The series is classed as cell-based, mouse. The conditions noted are these: induced by LPS stimulation. On the procedure:
RNA isolation, cDNA synthesis and qPCR. RNA was extracted from in vitro generated samples with RNeasy Mini kit (#74106, QIAGEN) and cDNA was prepared by using the High-Capacity cDNA Reverse Transcription Kit (#4368813, Life Technologies), both according to the manufacturer's protocol. Gene expression was measured by qPCR with Taqman Fast Universal PCR Master Mix (#4367846, Life Technologies). Data were analyzed by the ddCt method by normalizing the expression of each gene to GAPDH and HPRT for mouse and GAPDH for human and then to the control group. All probes are listed below. • Mouse: EphB3 Mm00802553_m1, Ccl2 Mm00441242_m1, Csf2 Mm01290062_m1, Nos2 Mm00440502_m1, Tnf Mm00443258 m1, Il1b Mm00434228_m1, 116 Mm00446190_m1, GAPDH Mm99999915_g1. • Human: CCL2 Hs00234140_m1, CSF2 Hs00929873 ml, NOS2 Hs01075529_m1, TNF • Hs00174128_m1, IL6 Hs00985639_m1, IL1b Hs01555410_m1, GAPDH Hs02758991_g1.
Background: In qPCR the cycle at which signal appears reflects the starting amount.

A further series is described as follows: Aqueous solubility. The series is classed as physicochemical. The conditions noted are these: aqueous solution, aqueous buffer; oxalate salt, pH 7.4; read-out: aqueous solubility of the oxalate salt.
Series [3] deals with astrocytes. Kind of series: Cytotoxicity (LDH release) and apoptosis (caspase-3/7) assay. The series is classed as cell-based. On the procedure:
Cytotoxicity and apoptosis assay. Compound cytotoxicity was inferred by quantifying Lactate Deshidrogenase (LDH) release to the cells supernatants after 24 h using the CytoTox 96© Non-Radioactive Cytotoxicity Assay, (Promega #G1780) following by manufacturer's protocol. […] Briefly cells were washed with 0.5% BSA, 2 mM EDTAin 1×PBS and incubated with surface antibodies and a live/dead cell marker on ice for 30 minutes. After, cells were washed and following staining for Caspase-3/7 according the manufacturer's instructions (Invitrogen, #C10427).
(LDH leaks from cells whose membrane has failed.)

For another series, the system named is N2A neuronal cells. As to the kind of experiment: Neurotoxicity assay of astrocyte-conditioned medium (LDH release). To be noted: ACM from astrocytes pre-treated with compound, LDH release after 24 h. The series is classed as cell-based, mouse. The protocol:
Generation of astrocyte-conditioned medium (ACM). […] After 24 h, cells were extensively washed with 1×PBS, and incubated with fresh astrocyte complete medium for 48 h. Supernatants were spun down and kept at −80° C. until tested in migration and neurotoxicity assays.
Neurotoxicity Assay. N2A neuronal cells (#CCL-131, ATCC) were plated and pre-activated with 100 ng/mL mouse IFNγ (#485-MI-100; R&D Systems) for 24 h.
Thereafter, after extensive washing with 1×PBS, medium was replaced with ACM and after 24 h the supernatant was harvested for cytotoxicity evaluation by measuring LDH release with CytoTox 96 nonradioactive cytotoxicity assay kit (#G1780, Promega) following the manufacturer's protocol.

A short description of series [4]: Preliminary in vivo pharmacokinetic evaluation, IP, plasma and brain concentrations. On the set-up: species or system Sprague-Dawley rats.
For a further series, the target named is T1, EphB3 (Homo sapiens, UniProt P54753).
T1 sequence (P54753 34-998): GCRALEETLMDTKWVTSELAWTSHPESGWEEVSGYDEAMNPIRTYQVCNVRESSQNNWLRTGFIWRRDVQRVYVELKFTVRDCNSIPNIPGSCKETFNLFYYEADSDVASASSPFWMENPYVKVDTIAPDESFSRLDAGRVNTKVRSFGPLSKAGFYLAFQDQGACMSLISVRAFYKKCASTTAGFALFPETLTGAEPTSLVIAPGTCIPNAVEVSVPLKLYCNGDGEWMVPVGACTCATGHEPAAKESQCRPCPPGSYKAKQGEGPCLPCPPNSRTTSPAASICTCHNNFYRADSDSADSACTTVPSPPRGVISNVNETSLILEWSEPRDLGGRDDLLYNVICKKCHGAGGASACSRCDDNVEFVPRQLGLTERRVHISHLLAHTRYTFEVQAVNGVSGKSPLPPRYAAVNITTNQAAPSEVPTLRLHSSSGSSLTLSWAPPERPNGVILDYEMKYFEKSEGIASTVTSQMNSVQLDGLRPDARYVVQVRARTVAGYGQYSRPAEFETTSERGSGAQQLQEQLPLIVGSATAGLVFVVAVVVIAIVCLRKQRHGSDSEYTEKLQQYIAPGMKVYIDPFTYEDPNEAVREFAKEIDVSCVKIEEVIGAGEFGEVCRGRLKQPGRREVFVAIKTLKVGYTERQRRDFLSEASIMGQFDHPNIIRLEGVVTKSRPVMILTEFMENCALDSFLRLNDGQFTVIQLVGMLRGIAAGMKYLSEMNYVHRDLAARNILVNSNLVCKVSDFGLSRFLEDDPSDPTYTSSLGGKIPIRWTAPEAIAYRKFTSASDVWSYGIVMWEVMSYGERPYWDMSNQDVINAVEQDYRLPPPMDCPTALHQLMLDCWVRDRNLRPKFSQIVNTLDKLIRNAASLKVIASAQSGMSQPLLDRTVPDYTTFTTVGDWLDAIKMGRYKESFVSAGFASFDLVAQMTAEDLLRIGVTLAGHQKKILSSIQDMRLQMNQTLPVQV
As to the kind of experiment: EphB3 radiometric kinase activity assay (33P ATP filter binding). To be noted: FIG. 1C. In kind it is biochemical. The protocol:
EphB3 radiometric kinase activity assay. To study the EphB3 kinase activity, a radioactive filter binding assay using 33P ATP was performed as described at the […] International Centre for Kinase profiling. […] The mix was harvested onto P81 filter plates and counts were read on a Topcount NXT.

As for `O=C(Nc1ccccc1Cl)c1cnc2ccc(C3CCNCC3)cn12` [A38], in series [1], the half-life was > 5 h. Also, the “mitochondrial production of ROS” value with astrocytes [2] was “decreased”. In addition, in the series with microglia, the “microglial expression of Nos2” value is “no effect” and the “microglial expression of Tnfa” value is listed as “no effect”. Also, the solubility in “Aqueous solubility” is > 10000 µg/mL. Also, in the series on astrocytes [3] (FIG. 1B), the “cytotoxicity (LDH release)” value is “did not induce cytotoxicity”. The “apoptosis (caspase-3/7 activation)” value in the series on astrocytes [3] (FIG. 7A) is given as “did not induce cytotoxicity or apoptosis”. Further, in the series with N2A neuronal cells, the ACM neurotoxic activity entry is “decrease in neurotoxicity; also recorded: reduced ACM neurotoxic”. In addition, the “brain Cmax” value in series [4] (IP 3 mg/kg in 100% saline, male Sprague-Dawley rats, mono-oxalate salt) is recorded as 331 ng/mL. Moreover, in series [4] (inferred from the brain to plasma ratio), the Pgp substrate result is “not a Pgp substrate”. For the same molecule, the Kp in series [4] (rat, brain/plasma, IP 3 mg/kg, male Sprague-Dawley rats, mono-oxalate salt, read-out: brain to plasma ratio) was found to be 1.5. Also, the Cmax in series [4] (rat, plasma, IP 3 mg/kg in 100% saline, male Sprague-Dawley rats, mono-oxalate salt) amounted to 221 ng/mL. Besides, the half-life in series [4] (rat, plasma, IP 3 mg/kg in 100% saline, male Sprague-Dawley rats, mono-oxalate salt, read-out: plasma half-life T1/2 (converted)) is 2.25 h. Further, the “EphB3 tyrosine kinase activity in a cell-free assay” value on EphB3 is “inhibited EphB3 tyrosine kinase activity in a dose-dependent manner”.

The values above are taken from patent US20240189289A1, “INHIBITORS OF EPHB3 SIGNALING” (The Brigham and Women`s Hospital, Inc., priority 2021, published 2024).
